TGI and GI50 data for 12 compounds are collected here from PubChem BioAssay (NCI).

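Test compounds were applied to cells in 96-well plates for 48 hours at 5 doses. Abbreviation: GI50, concentration required for 50% inhibition of growth. Definition used: TGI = concentration required for complete inhibition of growth.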 Bounds are passed on as bounds.

Some test systems named below: A549 NSCLC; CAKI-1 renal; OVCAR-3 ovarian; OVCAR-8 ovarian; SN12C renal; SNB-19 CNS; TK-10 renal; SF-295 CNS; SK-MEL-5 melanoma; PC-3 prostate.
Holding throughout (assay): growth of human tumour cells (NCI), 48 h

In the case of `C1=Nc2ccccc2Cn2nncc21`, the TGI in the assay on A549 NSCLC, with CAKI-1 renal, in the assay on OVCAR-3 ovarian, with OVCAR-8 ovarian, in the assay on SN12C renal and in the assay with SNB-19 CNS was more than 100 µM each time. Besides, in the assay with TK-10 renal, the TGI was more than 100 µM.
With `OC(c1ccccc1)C1CC2C=CC1C2` (stereo unspecified), the TGI with A549 NSCLC, in the assay on CAKI-1 renal, in the assay with OVCAR-3 ovarian, in the assay on OVCAR-8 ovarian, with SF-295 CNS and with SK-MEL-5 melanoma was more than 100 µM each time. In addition, the TGI with SN12C renal, in the assay on SNB-19 CNS and in the assay on TK-10 renal was more than 100 µM each time.
`O=c1ccc2c(Cl)cccc2o1`: the TGI in the assay on A549 NSCLC, in the assay with CAKI-1 renal, in the assay with OVCAR-3 ovarian, in the assay on OVCAR-8 ovarian, in the assay on PC-3 prostate and in the assay on SF-295 CNS was more than 100 µM in each case. The TGI in the assay on SK-MEL-5 melanoma, with SN12C renal, with SNB-19 CNS and in the assay with TK-10 renal was more than 100 µM each time.
As for `CCN(CC)CCCC(C)Nc1c2ccc(Cl)cc2nc2cc(Cl)ccc12` (stereo unspecified), the TGI with A549 NSCLC came out at 18.1 µM; with CAKI-1 renal, 10.7 µM; in the assay on OVCAR-3 ovarian, 13.4 µM; with OVCAR-8 ovarian, 19.3 µM; in the assay with SF-295 CNS, 8.49 µM; with SK-MEL-5 melanoma, 10 µM. Moreover, the TGI in the assay on SN12C renal came out at 17.3 µM; in the assay on SNB-19 CNS it was 40.8 µM.
`Clc1ccc(C2CC(c3cccc(Nc4ccncc4)c3)=NN2c2ccccc2)cc1` (stereo unspecified): the GI50 with CAKI-1 renal was 1.5 µM; with PC-3 prostate it was 1.6 µM; in the assay with SF-295 CNS, 1.66 µM; with SK-MEL-5 melanoma it was 1.82 µM; with SN12C renal, 1.78 µM; in the assay on SNB-19 CNS it was 1.71 µM. The GI50 in the assay on TK-10 renal was 1.83 µM. Moreover, the TGI in the assay with CAKI-1 renal amounted to 2.84 µM; in the assay on PC-3 prostate it was 3.12 µM; in the assay on SF-295 CNS, 3.07 µM; in the assay with SK-MEL-5 melanoma, 3.26 µM; in the assay with SN12C renal, 3.31 µM; in the assay with SNB-19 CNS it was 3.18 µM. Besides, the TGI in the assay with TK-10 renal worked out at 3.45 µM.
As to `CC(C(=O)NCCNC(=O)CCCC(=O)N(C)O)C(=O)NCCNC(=O)CCCC(=O)N(C)O`, the TGI in the assay with A549 NSCLC, in the assay on CAKI-1 renal, in the assay on OVCAR-3 ovarian, in the assay with OVCAR-8 ovarian, in the assay on PC-3 prostate and in the assay with SF-295 CNS was more than 100 µM each time. Also, the TGI with SK-MEL-5 melanoma, in the assay on SNB-19 CNS and in the assay on TK-10 renal was more than 100 µM in each case.
As for `COc1ccc(N2C(=O)C(=O)N(C)C2=O)c2ccccc12`, the TGI with A549 NSCLC, in the assay with CAKI-1 renal, in the assay with OVCAR-3 ovarian, with OVCAR-8 ovarian, with PC-3 prostate and with SF-295 CNS was more than 10 µM throughout. Also, the TGI in the assay on SK-MEL-5 melanoma, with SN12C renal, with SNB-19 CNS and with TK-10 renal was more than 10 µM in each case.
As to `CSC1=C(SC)C(=O)c2cn(C)c(=O)cc2C1=O`, the TGI in the assay with A549 NSCLC was 36.9 µM; in the assay with OVCAR-3 ovarian, 3.54 µM; with OVCAR-8 ovarian, more than 70.9 µM; with PC-3 prostate, 26.2 µM; with SF-295 CNS, 26 µM; in the assay on SK-MEL-5 melanoma, 3.15 µM. Besides, the TGI was determined as 12.3 µM in the assay on SN12C renal, 31.1 µM in the assay with SNB-19 CNS and 5.39 µM with TK-10 renal.
In the case of `Fc1ccc(Nc2ncc(-c3cc(F)c(Cl)cc3Cl)s2)cc1Cl`, the GI50 in the assay on A549 NSCLC is 14.9 µM; in the assay with CAKI-1 renal, 8.2 µM; with OVCAR-3 ovarian, 10.5 µM; in the assay on OVCAR-8 ovarian, 20.1 µM; in the assay on PC-3 prostate, 14 µM; with SF-295 CNS, 15.9 µM. The GI50 is 12.3 µM in the assay on SK-MEL-5 melanoma, 3.91 µM with SN12C renal, more than 100 µM with SNB-19 CNS and 8.05 µM in the assay on TK-10 renal. Further, the TGI in the assay on A549 NSCLC amounted to 31.3 µM; in the assay with CAKI-1 renal it was 22 µM; with OVCAR-3 ovarian, 23.9 µM; with OVCAR-8 ovarian it was 64.2 µM; in the assay with PC-3 prostate, 27.7 µM; in the assay on SF-295 CNS, 31 µM. Also, the TGI is 25.9 µM in the assay with SK-MEL-5 melanoma, more than 100 µM in the assay with SN12C renal, more than 100 µM with SNB-19 CNS and 21.8 µM in the assay on TK-10 renal.
For the compound `CC1(CO)C(O)CCC2(C)C1C(O)CC1CC3CC12CCC3(O)CO` (stereo unspecified), the TGI in the assay with A549 NSCLC is more than 225 µM; in the assay on CAKI-1 renal, more than 225 µM; in the assay with OVCAR-3 ovarian, more than 225 µM; in the assay on OVCAR-8 ovarian, more than 225 µM; in the assay on SF-295 CNS it was more than 104 µM; with SK-MEL-5 melanoma, more than 225 µM. The TGI in the assay on SN12C renal and in the assay on SNB-19 CNS was more than 225 µM in each case.
Consider `COC1=CC(=O)c2c(c(COC(C)=O)cn2C)C1=O`, for which the TGI with A549 NSCLC came out at 0.509 µM; in the assay on CAKI-1 renal it was 0.22 µM; in the assay with OVCAR-3 ovarian, 0.395 µM; with OVCAR-8 ovarian, 0.313 µM; in the assay with PC-3 prostate it was 1.35 µM; in the assay on SF-295 CNS, 0.0692 µM. Further, the TGI in the assay with SK-MEL-5 melanoma came out at 0.39 µM; in the assay on SN12C renal, 0.325 µM; with SNB-19 CNS, 8.18 µM; in the assay with TK-10 renal it was 0.207 µM.
With `CC(C)NC(=O)OCc1nnn2c1CCC2`, the TGI in the assay on A549 NSCLC, in the assay with OVCAR-3 ovarian, in the assay with OVCAR-8 ovarian, in the assay on SF-295 CNS, in the assay with SK-MEL-5 melanoma and with SN12C renal was more than 100 µM in each case. Further, the TGI in the assay with TK-10 renal was more than 100 µM.
